Test results taken from patent publication US20260083924A1, “CAPSULE INHALER FOR THE ADMINISTRATION OF A PHOSPHODIESTERASE-4 INHIBITOR” (CHIESI FARMACEUTICI S.P.A., priority 2022, published 2026).

Key:
[1] = In vitro dissolution test (RespiCell) on fine fraction collected by Fast Screening Impactor; format: physicochemical; conditions: FIG. 3; 800 μg dose, HR RS01 or UHR RS01 vs Nexthaler; PBS with 0.5% SDS, 37 °C
Method: In vitro dissolution tests were carried out to compare the performance of the Reference Products and the drug product of the invention at 800 μg, using RespiCell™ (EU registration No 006649570-0001), a vertical diffusion cell apparatus that comprises a 170 cm^3 reservoir filled with the dissolution media and a side arm of 10 cm length. The apparatus is composed of an upper part, the donor chamber, and a lower part, the receptor chamber, linked by a clamp and separated by a glass fiber filter, used as diffusion membrane, and sit horizontally in contact with the dissolution medium. The receptor chamber contains a magnetic stirrer inside it. Type A/E glass fiber filter of 76 mm diameter (PALL Corporation, Port Washington; NY, USA) were employed as diffusion membrane. The dissolution medium employed for the analysis was phosphate-buffer saline (PBS) with 0.5% of Sodium dodecyl sulfate (SDS). RespiCell™ was connected to a heating thermostat (Lauda eco silver E4, DE) set at 37±0.5° C. […] The amount of drug in the samples was assessed by HPLC. The data were expressed as percentage of the compound of formula (I) dissolved and 100% of the dissolution corresponded to the drug amount dissolved at the end of experiment. […] The difference factor (f1) is calculated as follows: […]

[2] = inhalation; multi-dose Nexthaler vs single-dose Aerolizer; cited from earlier work

- amount of the compound of formula (I) dissolved, higher in comparison to the Reference Product [1]: 7-20%
SMILES: CS(=O)(=O)Nc1ccc(C(=O)O[C@@H](Cc2c(Cl)c[n+]([O-])cc2Cl)c2ccc(OC(F)F)c(OCC3CC3)c2)cc1OCC1CC1 [compound of formula (I), 3,5-dichloro-4-[(2S)-2-[3-(cyclopropylmethoxy)-4-(difluoromethoxy)phenyl]-2-{[3-(cyclopropylmethoxy)-4-(methanesulfonamido)benzoyl]oxy}ethyl]pyridinel-oxide]
- weighted AUC systemic bioavailability, higher via Nexthaler than via Aerolizer [2]: about 30%
